Experiment [1] concerns the target T1, CDK1/Cyclin B (Homo sapiens, UniProt P06493).
T1 construct: purchased Invitrogen PR4768C
As to the kind of experiment: Enzymatic assay for CDK1 (FRET based LANCE Ultra kinase assay). It is filed as biochemical. Put shortly: (§1)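 LANCE Ultra TR-FRET: ULight-MBP peptide (68 nM) with ATP at Km, […], 60 min at 23° C. EDTA plus Eu-anti-phospho-MBP added, another 60 min, then 665/615 nm emission read. Compounds tested as 8-dose 4-fold DMSO dilutions.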

For experiment [2], the target named is T2, CDK2/Cyclin A (Homo sapiens, UniProt P24941).
T2 construct: purchased Invitrogen PV6290
As to the kind of experiment: Enzymatic assay for CDK2 (FRET based LANCE Ultra kinase assay). It counts as biochemical. Put shortly:
as §1

The target in experiment [3] is T3, CDK5/p25 (Homo sapiens, UniProt Q00535).
T3 construct: purchased Invitrogen PR8543B
T3 sequence (Q00535 whole entry): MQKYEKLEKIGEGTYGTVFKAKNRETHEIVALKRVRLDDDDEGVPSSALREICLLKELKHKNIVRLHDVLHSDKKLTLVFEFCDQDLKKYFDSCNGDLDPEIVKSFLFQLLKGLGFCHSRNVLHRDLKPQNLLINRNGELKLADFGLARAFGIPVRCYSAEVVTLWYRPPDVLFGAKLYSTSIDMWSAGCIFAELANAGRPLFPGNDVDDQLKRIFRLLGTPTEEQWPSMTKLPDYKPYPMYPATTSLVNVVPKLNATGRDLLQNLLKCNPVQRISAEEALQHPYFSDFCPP
T3 sequence (Q15078 99-307 partner limits assumed): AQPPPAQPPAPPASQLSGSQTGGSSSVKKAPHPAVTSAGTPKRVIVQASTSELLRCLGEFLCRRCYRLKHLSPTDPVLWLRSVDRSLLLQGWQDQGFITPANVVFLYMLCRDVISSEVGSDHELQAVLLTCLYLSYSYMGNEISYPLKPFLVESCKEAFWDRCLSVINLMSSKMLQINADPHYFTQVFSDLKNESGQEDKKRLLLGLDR
The experiment is described as follows: Enzymatic assay for CDK5 (FRET based LANCE Ultra kinase assay). It is filed as biochemical. Put shortly:
as §1

Experiment [4] concerns the target T4, CDK7/Cyclin H/MNAT1 (Homo sapiens, UniProt P50613).
T4 construct: purchased Invitrogen PR6749B
As to the kind of experiment: Enzymatic assay for CDK7 (FRET based LANCE Ultra kinase assay). It is filed as biochemical. Put shortly:
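LANCE Ultra TR-FRET kinase assay using a ULight-labeled peptide substrate and a Eu-labeled anti-phospho antibody, with ATP at its Km. Purified CDK/cyclin complex was added to compound after brief centrifugation.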

In experiment [5] the test system is H460. As to the kind of experiment: Cellular H460 viability assay (CellTiter-Glo, 72 hours). As to conditions: Homo sapiens, NCI-H460. It is filed as cell-based. Put shortly: (§2)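 Cells plated in 96 wells and exposed to compound 72 h at 37 °C, 5% CO2, final DMSO below 0.1%, DMSO control. Viability by CellTiter-Glo luminescence, duplicate.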
In experiment [6] the test system is MV4-11. As to the kind of experiment: Cellular MV4-11 viability assay (CellTiter-Glo, 72 hours). It counts as cell-based. The note with it: Homo sapiens. Put shortly:
as §2

Experiment [7] concerns A2780. The experiment is described as follows: Cellular A2780 viability assay (CellTiter-Glo, 72 hours). As to conditions: Homo sapiens. It counts as cell-based. An excerpt:
Human T-cell acute lymphoblastic leukemia cell line, MOLT-4 (ATCC, Cat #CRL-1582), Human multiple myeloma cell line, RPMI-8226 (Invitrogen, Cat #22400-089) and MM.1S (ATCC, Cat #CRL-2974), NSCLC (Non-small cell lung cancer) cell line H460 (ATCC, Cat #HTB-177), Human colon colorectal carcinoma cell line HCT116 (ATCC, Cat #CCL-247), Human acute monocytic leukemia cell line MV4-11 (ATCC, Cat #CRL-9591), OVCAR-3 (ATCC, Cat #HTB-161) and A2780 (ECACC, Cat #93112519) were obtained from ATCC. Cells were grown in RPMI-1640 media (Invitrogen, Cat #22400-089) supplemented with 10% FBS (Invitrogen, Cat #10099141) and 1% penicillin/streptomycin (Invitrogen, Cat #15070063) and cultured at 37° C., 5% CO2 in a humidified chamber. All cell lines were routinely tested for mycoplasma.
The effect of the CDK7 inhibitor to inhibit the growth of target cancer cells was evaluated through the 72 hours time period of viability assay. Briefly, the candidate cell line ware plated in 96 well plate at the following density of cells respectively. 1×10^4 cells/well for MOLT-4, RPMI-8226, MV4-11 and MM.1S, 5×10^3 for H460, HCT116 and OVCAR-3 and IX 10^3 for A2780. After 24 hours, the cells were treated with various concentrations of the compound (ranging from 0.0015 uM to 10 uM). DMSO solvent without compound served as a control and final DMSO concentration less than 0.1%. After 72 hours of incubation at 37° C., 5% CO2 incubator, cells were analyzed for the viability using the CellTiter-Glo Luminescent Cell Viability Assay (Promega, Cat #G7570). All viability assays were performed in duplicate and Luminescence was read using an Envision (Perkin Elmer, USA). Data was analyzed using XLfit software.

Where [8] appears, read: read-out: CDK1 enzymatic activity (IC50 activity range).
Setting [9] is: read-out: CDK2 enzymatic activity (IC50 activity range).
[10] abbreviates: read-out: CDK5 enzymatic activity (IC50 activity range).
The mark [11] stands for this setting: read-out: CDK7 enzymatic activity (IC50 activity range).
[12] abbreviates: read-out: CDK1 enzymatic activity (IC50 range).
Where [13] appears, read: read-out: CDK2 enzymatic activity (IC50 range).
Setting [14] is: read-out: CDK5 enzymatic activity (IC50 range).
The mark [15] stands for this setting: read-out: CDK7 enzymatic activity (IC50 range).

The record followed here is patent US11945822B2, “Pyrazolo-triazine and/or pyrazolo-pxrimidine derivatives as selective inhibitor of cyclin dependent kinase” (QURIENT CO., LTD., priority 2018, dated 2024).

Each structure is given as a SMILES string. Like-named read-outs stand apart in the source and are kept apart here. Bounds are passed on as bounds.

T1 sequence (P06493 whole entry): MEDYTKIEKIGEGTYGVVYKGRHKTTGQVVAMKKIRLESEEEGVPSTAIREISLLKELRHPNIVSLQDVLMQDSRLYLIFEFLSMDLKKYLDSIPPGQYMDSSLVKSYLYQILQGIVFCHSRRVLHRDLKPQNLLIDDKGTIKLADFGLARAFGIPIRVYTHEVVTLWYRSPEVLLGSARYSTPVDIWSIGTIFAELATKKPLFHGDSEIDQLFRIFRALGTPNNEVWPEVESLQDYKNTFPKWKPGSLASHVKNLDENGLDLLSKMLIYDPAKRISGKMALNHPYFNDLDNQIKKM
T1 sequence (P14635 whole entry partner): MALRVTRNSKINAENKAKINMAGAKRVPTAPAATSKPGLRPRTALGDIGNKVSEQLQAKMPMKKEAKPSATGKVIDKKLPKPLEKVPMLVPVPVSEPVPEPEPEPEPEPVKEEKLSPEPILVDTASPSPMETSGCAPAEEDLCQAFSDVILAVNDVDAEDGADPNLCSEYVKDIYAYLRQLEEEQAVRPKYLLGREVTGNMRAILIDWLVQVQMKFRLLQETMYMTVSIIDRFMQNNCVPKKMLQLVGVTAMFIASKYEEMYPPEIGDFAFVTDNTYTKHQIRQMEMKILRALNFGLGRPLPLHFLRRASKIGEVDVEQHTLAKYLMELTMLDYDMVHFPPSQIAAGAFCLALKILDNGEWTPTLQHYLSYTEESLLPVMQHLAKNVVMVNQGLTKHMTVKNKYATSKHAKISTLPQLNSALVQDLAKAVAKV
T4 sequence (P50613 whole entry): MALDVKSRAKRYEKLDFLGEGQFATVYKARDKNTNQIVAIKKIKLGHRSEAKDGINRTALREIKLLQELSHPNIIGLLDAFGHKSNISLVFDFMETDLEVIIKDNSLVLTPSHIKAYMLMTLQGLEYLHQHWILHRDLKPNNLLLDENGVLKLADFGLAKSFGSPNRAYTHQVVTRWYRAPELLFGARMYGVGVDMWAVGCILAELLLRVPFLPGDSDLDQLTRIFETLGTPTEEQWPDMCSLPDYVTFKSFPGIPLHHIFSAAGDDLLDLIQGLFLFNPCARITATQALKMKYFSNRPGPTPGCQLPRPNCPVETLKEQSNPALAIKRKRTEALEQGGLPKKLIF
T4 sequence (P51946 whole entry partner): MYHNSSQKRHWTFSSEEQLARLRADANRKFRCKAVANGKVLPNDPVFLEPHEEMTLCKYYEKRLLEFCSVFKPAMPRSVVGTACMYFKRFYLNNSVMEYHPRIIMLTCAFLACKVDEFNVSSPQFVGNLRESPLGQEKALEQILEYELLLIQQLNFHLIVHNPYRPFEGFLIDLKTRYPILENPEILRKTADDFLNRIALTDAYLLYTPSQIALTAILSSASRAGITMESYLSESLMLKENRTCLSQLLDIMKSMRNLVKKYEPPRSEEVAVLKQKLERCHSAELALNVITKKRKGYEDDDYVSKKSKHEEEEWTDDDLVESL
T4 sequence (P51948 whole entry partner): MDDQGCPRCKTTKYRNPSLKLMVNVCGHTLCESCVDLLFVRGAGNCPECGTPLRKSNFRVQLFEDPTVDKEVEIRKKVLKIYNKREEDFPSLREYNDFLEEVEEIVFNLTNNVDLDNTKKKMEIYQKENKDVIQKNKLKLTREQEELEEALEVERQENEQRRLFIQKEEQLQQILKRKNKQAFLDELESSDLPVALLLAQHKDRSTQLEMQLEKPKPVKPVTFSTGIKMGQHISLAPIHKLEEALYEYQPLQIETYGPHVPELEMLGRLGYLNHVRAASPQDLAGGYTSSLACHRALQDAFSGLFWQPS

Regarding `CC(C)c1cnn2c(NCc3c(Cl)cccc3-c3cc(C(C)(C)O)nn3C)nc(N3CCC(N)CC3)nc12` [Compound 258], the IC50 in experiment [1] (setting [8]) was above 1 µM; in experiment [2] (setting [9]), above 1 µM; in experiment [3] (setting [10]), above 1 µM; in experiment [4] (setting [11]) it was below 0.1 µM; in experiment [5] it was below 1 µM; in experiment [6], below 1 µM. The IC50 in experiment [7] is at most 1 µM. In addition, the “CDK1/CDK7: Selectivity of CDK7 inhibition over CDK1 inhibition” value in experiment [4] (CDK1/CDK7) is “A (A=greater than 200 fold)”. Also, in experiment [4] (CDK2/CDK7), the “CDK2/CDK7: Selectivity of CDK7 inhibition over CDK2 inhibition” value was “A (A=greater than 200 fold)”. The “CDK5/CDK7: Selectivity of CDK7 inhibition over CDK5 inhibition” value in experiment [4] (CDK5/CDK7) is “A (A=greater than 200 fold)”.

As for `Cc1cn(-c2cccc(Cl)c2CNc2nc(N3CCC(N)CC3)nc3c(C(C)C)cnn23)nc1C(C)(C)O` [Compound 256], the IC50 in experiment [1] (setting [8]) was above 1 µM; in experiment [2] (setting [9]), above 1 µM; in experiment [3] (setting [10]) it was above 1 µM; in experiment [4] (setting [11]), below 0.1 µM; in experiment [5], below 1 µM; in experiment [6], below 1 µM. Moreover, the half-maximal inhibitory concentration (IC50) in experiment [7] is at most 1 µM. Moreover, in experiment [4] (CDK1/CDK7), the “CDK1/CDK7: Selectivity of CDK7 inhibition over CDK1 inhibition” value is “A (A=greater than 200 fold)”. In addition, the “CDK2/CDK7: Selectivity of CDK7 inhibition over CDK2 inhibition” value in experiment [4] (CDK2/CDK7) was “A (A=greater than 200 fold)”. Moreover, the “CDK5/CDK7: Selectivity of CDK7 inhibition over CDK5 inhibition” value in experiment [4] (CDK5/CDK7) is given as “A (A=greater than 200 fold)”.

With `CC(C)c1cnn2c(NCc3ccccc3-c3ccc4ccccc4n3)nc(NCC[C@H](O)CN)nc12` [Compound 247], the IC50 in experiment [1] (setting [12]) was above 1 µM; in experiment [2] (setting [13]), above 1 µM; in experiment [3] (setting [14]), above 1 µM; in experiment [4] (setting [15]), below 0.1 µM; in experiment [5], 1 to 10 µM; in experiment [6], 1 to 10 µM. For the same compound, the IC50 in experiment [7] lay in the range of 1 to 10 µM. Also, the “CDK1/CDK7: Selectivity of CDK7 inhibition over CDK1 inhibition” value in experiment [4] (CDK7 over CDK1) is “A (A=greater than 200 fold)”. The “CDK2/CDK7: Selectivity of CDK7 inhibition over CDK2 inhibition” value in experiment [4] (CDK7 over CDK2) was “A (A=greater than 200 fold)”. For the same compound, the “CDK5/CDK7: Selectivity of CDK7 inhibition over CDK5 inhibition” value in experiment [4] (CDK7 over CDK5) is given as “A (A=greater than 200 fold)”.

Turning to `CC(C)c1cnn2c(NCc3ccccc3-c3ccc4ccccc4n3)nc(NC[C@@H](O)CN)nc12` [Compound 248], the IC50 is above 1 µM in experiment [1] (setting [12]); above 1 µM in experiment [2] (setting [13]); above 1 µM in experiment [3] (setting [14]); below 0.1 µM in experiment [4] (setting [15]); below 1 µM in experiment [5]; 1 to 10 µM in experiment [6]. This compound yielded an IC50 in experiment [7] of at most 1 µM. Also, in experiment [4] (CDK7 over CDK1), the “CDK1/CDK7: Selectivity of CDK7 inhibition over CDK1 inhibition” value was “A (A=greater than 200 fold)”. The “CDK2/CDK7: Selectivity of CDK7 inhibition over CDK2 inhibition” value in experiment [4] (CDK7 over CDK2) is “A (A=greater than 200 fold)”. Further, the “CDK5/CDK7: Selectivity of CDK7 inhibition over CDK5 inhibition” value in experiment [4] (CDK7 over CDK5) was “A (A=greater than 200 fold)”.

For the compound `CC(C)c1cnn2c(NCc3c(Cl)cccc3-n3ccc(C(C)(C)O)n3)nc(N3CCC(F)(CN)CC3)nc12` [Compound 252], the half-inhibitory concentration (IC50) in experiment [1] (setting [8]) is above 1 µM; in experiment [2] (setting [9]), above 1 µM; in experiment [3] (setting [10]) it was above 1 µM; in experiment [4] (setting [11]), below 0.1 µM; in experiment [5], below 1 µM; in experiment [6], below 1 µM. In experiment [7], this compound displayed a half-maximal inhibitory concentration (IC50) of at most 1 µM. Besides, the “CDK1/CDK7: Selectivity of CDK7 inhibition over CDK1 inhibition” value in experiment [4] (CDK1/CDK7) is recorded as “A (A=greater than 200 fold)”. In addition, the “CDK2/CDK7: Selectivity of CDK7 inhibition over CDK2 inhibition” value in experiment [4] (CDK2/CDK7) is reported as “A (A=greater than 200 fold)”. Moreover, the “CDK5/CDK7: Selectivity of CDK7 inhibition over CDK5 inhibition” value in experiment [4] (CDK5/CDK7) is on record as “A (A=greater than 200 fold)”.
